Data published in patent publication US12458021B2, “Microbiocidal derivatives” (SYNGENTA CROP PROTECTION AG, priority 2019, dated 2025).

Tests used:
Alternaria solani = Alternaria solani / tomato / leaf disc (early blight); assay type: in vivo; conditions: foliar, tomato leaf disks cv. Baby, inoculated 2 days after application, assessed 5-7 days after application, read-out: control of Alternaria solani (percent disease control compared to untreated)
Protocol: Example B1: Alternaria solani/Tomato/Leaf Disc (Early Blight) Tomato leaf disks cv. Baby are placed on agar in multiwell plates (24-well format) and sprayed with the formulated test compound diluted in water. The leaf disks are inoculated with a spore suspension of the fungus 2 days after application. The inoculated leaf disks are incubated at 23° C./21° C. […] […]-185.

[1] = system: Botryotinia fuckeliana (Botrytis cinerea); assay: Botryotinia fuckeliana (Botrytis cinerea) / liquid culture (gray mould); assay type: cell-based; conditions: Vogels broth, 24° C., 3-4 days after application, read-out: control of Botryotinia fuckeliana (inhibition of growth, photometric)
Protocol: Example B2: Botryotinia fuckeliana (Botrytis cinerea)/Liquid Culture (Gray Mould) Conidia of the fungus from cryogenic storage are directly mixed into nutrient broth (Vogels broth). After placing a (DMSO) solution of test compound into a microtiter plate (96-well format), the nutrient broth containing the fungal spores is added. The test plates are incubated at 24° C. and the inhibition of growth is determined photometrically 3-4 days after application. […] […]-190.

[2] = system: Glomerella lagenarium (Colletotrichum lagenarium); assay: Glomerella lagenarium (Colletotrichum lagenarium) / liquid culture (anthracnose); assay type: cell-based; conditions: Colletotrichum orbiculare, PDB potato dextrose broth, 24° C., 3-4 days after application, read-out: control of Glomerella lagenarium (inhibition of growth, photometric)
Outline: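 Fungal growth inhibition measured photometrically 3-4 days post-application at 24° C. Spores were mixed directly into potato dextrose broth and dispensed onto test compound supplied in DMSO.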

[3] = system: Blumeria graminis f. sp. tritici (Erysiphe graminis f. sp. tritici); assay: Blumeria graminis f. sp. tritici / wheat / leaf disc preventative (powdery mildew on wheat); assay type: in vivo; conditions: foliar, wheat leaf segments cv. Kanzler, inoculated 1 day after application, assessed 6-8 days after application, read-out: control of Blumeria graminis f. sp. tritici (percent disease control compared to untreated)
Description: Example B4: Blumeria graminis f. sp. tritici (Erysiphe graminis f. sp. tritici)/Wheat/Leaf Disc Preventative (Powdery Mildew on Wheat) Wheat leaf segments cv. Kanzler are placed on agar in a multiwell plate (24-well format) and sprayed with the formulated test compound diluted in water. The leaf disks are inoculated by shaking powdery mildew infected plants above the test plates 1 day after application. […] […]-192.

[4] = system: Monographella nivalis (Microdochium nivale); assay: Monographella nivalis (Microdochium nivale) / liquid culture (foot rot cereals); assay type: cell-based; conditions: PDB potato dextrose broth, 24° C., 4-5 days after application, read-out: control of Monographella nivalis (inhibition of growth, photometric)
Outline: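 Growth inhibition measured by photometry 4-5 days post-application at 24° C. Compound was dispensed as DMSO solution, then PDB broth containing conidia from cryogenic storage was added.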

[5] = system: Puccinia recondita f. sp. tritici; assay: Puccinia recondita f. sp. tritici / wheat / leaf disc preventative (brown rust); assay type: in vivo; conditions: foliar, wheat leaf segments cv. Kanzler, inoculated 1 day after application, assessed 7-9 days after application, read-out: control of Puccinia recondita f. sp. tritici, preventative (percent disease control compared to untreated)
Outline: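 Wheat leaf segments (cv. Kanzler) on agar were sprayed with formulated compound, then inoculated with spores 1 day later. Segments were incubated at 19 °C, 75% rh with 12 h light/dark. Percent disease control versus untreated was scored 7–9 days after application.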

[6] = system: Mycosphaerella graminicola (Septoria tritici); assay: Mycosphaerella graminicola (Septoria tritici) / liquid culture (Septoria blotch); assay type: cell-based; conditions: Zymoseptoria tritici, PDB potato dextrose broth, 24° C., 4-5 days after application, read-out: control of Mycosphaerella graminicola (inhibition of growth, photometric)
Outline: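 Fungal growth inhibition was read photometrically 4-5 days after application. Compound was dosed from a DMSO solution into liquid cultures of spores in potato dextrose broth, incubated at 24° C.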

[7] = system: Phaeosphaeria nodorum (Septoria nodorum); assay: Phaeosphaeria nodorum (Septoria nodorum) / wheat / leaf disc preventative (glume blotch); assay type: in vivo; conditions: Parastagonospora nodorum, foliar, wheat leaf segments cv. Kanzler, inoculated 2 days after application, assessed 5-7 days after application, read-out: control of Phaeosphaeria nodorum (percent disease control compared to untreated)
Protocol: Example B6: Phaeosphaeria nodorum (Septoria nodorum)/Wheat/Leaf Disc Preventative (Glume Blotch) Wheat leaf segments cv. Kanzler are placed on agar in a multiwell plate (24-well format) and sprayed with the formulated test compound diluted in water. The leaf disks are inoculated with a spore suspension of the fungus 2 days after application. The inoculated test leaf disks are incubated at 20° C. and 75% rh under a light regime of 12 h light/12 h darkness in a climate cabinet and the activity of a compound is assessed as percent disease control compared to untreated when an appropriate level of disease damage appears in untreated check leaf disks (5-7 days after application). […] […]-190.

[8] = system: Mycosphaerella arachidis (Cercospora arachidicola); assay: Mycosphaerella arachidis (Cercospora arachidicola) / liquid culture (early leaf spot); assay type: cell-based; conditions: PDB potato dextrose broth, 24° C., 4-5 days after application, read-out: control of Mycosphaerella arachidis (inhibition of growth, photometric)
Protocol: Example B8: Mycosphaerella arachidis (Cercospora arachidicola)/Liquid Culture (Early Leaf Spot) Conidia of the fungus from cryogenic storage are directly mixed into nutrient broth (PDB potato dextrose broth). After placing a (DMSO) solution of test compound into a microtiter plate (96-well format), the nutrient broth containing the fungal spores is added. The test plates are incubated at 24° C. and the inhibition of growth is determined photometrically 4-5 days after application. […] […]-180.

Pyrenophora teres = Pyrenophora teres / barley / leaf disc preventative (net blotch); assay type: in vivo; conditions: foliar, barley leaf segments cv. Hasso, inoculated 2 days after application, assessed 5-7 days after application, read-out: control of Pyrenophora teres (disease control compared to untreated)
Outline: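 Barley cv. Hasso leaf discs on agar were sprayed with diluted formulated compound, then inoculated with spore suspension 2 days later. Incubation at 20 °C, 65% rh, 12 h light/dark; disease control versus untreated assessed 5-7 days after application.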

Sclerotinia sclerotiorum = Sclerotinia sclerotiorum / liquid culture (cottony rot); assay type: cell-based; conditions: PDB potato dextrose broth, mycelia fragments, 24° C., 3-4 days after application, read-out: control of Sclerotinia sclerotiorum (inhibition of growth, photometric)
Protocol: Example B14: Sclerotinia sclerotiorum/Liquid Culture (Cottony Rot) Mycelia fragments of a newly grown liquid culture of the fungus are directly mixed into nutrient broth (PDB potato dextrose broth). After placing a (DMSO) solution of test compound into a microtiter plate (96-well format) the nutrient broth containing the fungal material is added. The test plates are incubated at 24° C. and the inhibition of growth is determined photometrically 3-4 days after application.

[9] = system: Magnaporthe grisea (Pyricularia oryzae); assay: whole plant or invertebrate; assay type: in vivo; conditions: foliar, read-out: control of Magnaporthe grisea (percent disease control compared to untreated)

COc1ccc(Nc2cc(F)nc(F)c2)nc1C(=O)NC(C)(C)C(C)C [Compound P-173, 6-[(2,6-difluoro-4-pyridyl)amino]-3-methoxy-N-(1,1,2-trimethylpropyl)pyridine-2-carboxamide]
≥ 80%: pest or weed control at 200 ppm (Alternaria solani) | inhibition at 20 ppm [1] | inhibition at 20 ppm [2] | pest or weed control at 200 ppm [3] | inhibition at 20 ppm [4] | pest or weed control at 200 ppm [5] | inhibition at 20 ppm [6]

COc1ccc(Nc2cc(F)cc(F)c2)nc1C(=O)NC(C)(C)C(C)(C)C [Compound P-171, 6-(3,5-difluoroanilino)-3-methoxy-N-(1,1,2,2-tetramethylpropyl)pyridine-2-carboxamide]
≥ 80%: pest or weed control at 200 ppm (Alternaria solani) | inhibition at 20 ppm [1] | inhibition at 20 ppm [2] | pest or weed control at 200 ppm [3] | pest or weed control at 200 ppm [7] | inhibition at 20 ppm [4] | inhibition at 20 ppm [8] | pest or weed control at 200 ppm [5] | pest or weed control at 200 ppm (Pyrenophora teres) | inhibition at 20 ppm [6]

COc1ccc(Nc2ccc3occc3c2)nc1C(=O)NC(C)(C)C [Compound P-157, 6-(benzofuran-5-ylamino)-N-tert-butyl-3-methoxy-pyridine-2-carboxamide]
≥ 80%: inhibition at 20 ppm [2] | inhibition at 20 ppm [4] | inhibition at 20 ppm (Sclerotinia sclerotiorum) | inhibition at 20 ppm [6]

COc1ccc(N(C(C)=O)c2cc(F)cc(F)c2)nc1C(=O)NC1CCC1(C)C (stereo not drawn) [Compound P-189, 6-(N-acetyl-3,5-difluoro-anilino)-N-(2,2-dimethylcyclobutyl)-3-methoxy-pyridine-2-carboxamide]
≥ 80%: inhibition at 20 ppm [1] | inhibition at 20 ppm [2] | pest or weed control at 200 ppm [3] | pest or weed control at 200 ppm [7] | inhibition at 20 ppm [4] | pest or weed control at 200 ppm [9] | inhibition at 20 ppm [6]

CC(C)(C)NC(=O)c1cccc(Nc2cc(F)cc(F)c2)n1 [Compound P-112, N-tert-butyl-6-(3,5-difluoroanilino)pyridine-2-carboxamide]
≥ 80%: pest or weed control at 200 ppm (Alternaria solani) | inhibition at 20 ppm [1] | inhibition at 20 ppm [2] | pest or weed control at 200 ppm [3] | pest or weed control at 200 ppm [7] | inhibition at 20 ppm [4] | pest or weed control at 200 ppm [5] | pest or weed control at 200 ppm [9] | inhibition at 20 ppm [6]

COc1ccc(Nc2cc(F)cc(F)c2Cl)nc1C(=O)NC(C)(C)C [Compound P-190, N-tert-butyl-6-(2-chloro-3,5-difluoro-anilino)-3-methoxy-pyridine-2-carboxamide]
≥ 80%: inhibition at 20 ppm [1] | inhibition at 20 ppm [2] | pest or weed control at 200 ppm [7] | inhibition at 20 ppm [4] | pest or weed control at 200 ppm [5] | inhibition at 20 ppm [6]

COc1cc(Nc2cc(F)cc(F)c2)nc(C(=O)NC(C)(C)C)c1 [Compound P-116, N-tert-butyl-6-(3,5-difluoroanilino)-4-methoxy-pyridine-2-carboxamide]
≥ 80%: inhibition at 20 ppm [1] | inhibition at 20 ppm [2] | pest or weed control at 200 ppm [7] | pest or weed control at 200 ppm (Pyrenophora teres)

COc1ccc(Nc2cc(F)cc(F)c2)nc1C(=O)NC1(C)CCOC1 (stereo not drawn) [Compound P-122, 6-(3,5-difluoroanilino)-3-methoxy-N-(3-methyltetrahydrofuran-3-yl)pyridine-2-carboxamide]
≥ 80%: inhibition at 20 ppm [2] | pest or weed control at 200 ppm [3] | inhibition at 20 ppm [4] | pest or weed control at 200 ppm [9] | inhibition at 20 ppm (Sclerotinia sclerotiorum) | inhibition at 20 ppm [6]

COc1ccc(Nc2cc(F)cc(F)c2)nc1C(=O)NC(C)(C)C(C)C [Compound P-172, 6-(3,5-difluoroanilino)-3-methoxy-N-(1,1,2-trimethylpropyl)pyridine-2-carboxamide]
≥ 80%: pest or weed control at 200 ppm (Alternaria solani) | inhibition at 20 ppm [1] | inhibition at 20 ppm [2] | pest or weed control at 200 ppm [3] | pest or weed control at 200 ppm [7] | inhibition at 20 ppm [4] | inhibition at 20 ppm [8] | pest or weed control at 200 ppm [5] | inhibition at 20 ppm [6]

COc1ccc(Nc2cccc(Cl)c2)nc1C(=O)NC(C)(C)C [Compound P-155, N-tert-butyl-6-(3-chloroanilino)-3-methoxy-pyridine-2-carboxamide]
≥ 80%: inhibition at 20 ppm [1] | inhibition at 20 ppm [2] | inhibition at 20 ppm [4] | pest or weed control at 200 ppm [5] | pest or weed control at 200 ppm [9] | pest or weed control at 200 ppm (Pyrenophora teres) | inhibition at 20 ppm [6]

COc1ccc(Nc2cc(F)cc(Cl)c2)nc1C(=O)NCC(C)(C)C [Compound P-134, 6-(3-chloro-5-fluoro-anilino)-N-(2,2-dimethylpropyl)-3-methoxy-pyridine-2-carboxamide]
≥ 80%: inhibition at 20 ppm [1] | inhibition at 20 ppm [2] | pest or weed control at 200 ppm [3] | inhibition at 20 ppm [4] | pest or weed control at 200 ppm (Pyrenophora teres) | inhibition at 20 ppm [6]
